Experimental data: patent US5045302A, “Ligands and cationic complexes thereof with technetium-99m” (priority 1988, dated 1991)
Like-named read-outs stand apart in the source and are kept apart here.

Legend:
[1] = Hydrophilicity, statement in words; format: physicochemical; settings: compared with complex TcL2O2+ (L=P53), as indicated by urinary output
[2] = Rat biodistribution of Tc-99m complexes
[3] = Heart uptake and urinary output, statement in words; settings: species not stated
[4] = Plasma binding study (PD10 column), human plasma; format: in vitro ADME; settings: for percent recovery of Tc99m activity: human, plasma; for binding to / interaction with human plasma: in words
Procedure: (§1) 1 ml sample of guinea pig or human plasma or saline (control) were added to 2 ml Eppendorf tubes. To these were then added 100 ul aliquots of the ^99m Tc preparation being studied. Mixing was performed by inverting the tubes several times. A 50 ul sample was then taken for counting and the remainder of the sample (1050 ul) was quantitatively transferred to the top of the PD10 column. The sample was allowed to enter the column matrix and then washed in with 1.5 mls saline. Initially a 2.5 ml aliquot was collected for counting, (dead volume) subsequently 0.5 ml aliquots were collected until a total volume of 16 mls had been used to elute the column. […] Collected fractions were counted in a γ well counter and a graph plotted of percentage recovery was calculated from initial preloading sample and cumulative counts.

[5] = rat, in vivo
[6] = guinea pig, in vivo
[7] = Protein binding, statement in words; format: in vitro ADME
[8] = guinea pig, serum
Procedure: as §1

[9] = Guinea pig biodistribution of Tc-99m complexes; settings: 60 min p.i.
[10] = saline
Procedure: as §1

[11] = in vivo

SMILES: COCCCP(CCCOC)CCP(CCCOC)CCCOC [Compound 3]
- hydrophilicity [1]: substantially higher hydrophilicity
- Blood ([2]; 2 min p.i.): 18.8 % Injected dose/organ
- Heart ([2]; 2 min p.i.): 0.44 % Injected dose/organ
- Heart/Blood Counts/Gram Ratio ([2]; 2 min p.i.): 0.35
- Heart/Liver Counts/Gram Ratio ([2]; 2 min p.i.): 1.71
- Liver ([2]; 2 min p.i.): 3.62 % Injected dose/organ
- Blood ([2]; 60 min p.i.): 0.77 % Injected dose/organ
- Heart ([2]; 60 min p.i.): 0.09 % Injected dose/organ
- Heart/Blood Counts/Gram Ratio ([2]; 60 min p.i.): 1.82
- Heart/Liver Counts/Gram Ratio ([2]; 60 min p.i.): 0.88
- Liver ([2]; 60 min p.i.): 1.35 % Injected dose/organ
- heart uptake [3]: low heart uptake
- urinary output [3]: high urinary output

SMILES: CCOCC[P+]1(CCOCC)CC[P+](CCOCC)(CCOCC)[Tc-3]12([Cl])([Cl])[P+](CCOCC)(CCOCC)CC[P+]2(CCOCC)CCOCC
- percent recovery of Tc99m activity [4]: 93.8%
- binding to / interaction with human plasma [4]: possible slight interaction
- blood and liver clearance [5]: good
- heart uptake [5]: good heart uptake
- wash-out from heart [5]: washes out of the respective hearts
- Blood ([5]; 2 min): 5.24 % Injected dose/organ
- Heart ([5]; 2 min): 1.51 % Injected dose/organ
- Heart/Blood Counts/Gram Ratio ([5]; 2 min): 3.90
- Heart/Liver Counts/Gram Ratio ([5]; 2 min): 0.64
- Heart/Muscle Counts/Gram Ratio ([5]; 2 min): 4.68
- Kidney + Urine ([5]; 2 min): 4.48 % Injected dose/organ
- Liver ([5]; 2 min): 28.87 % Injected dose/organ
- Liver + GI ([5]; 2 min): 41.13 % Injected dose/organ
- Lung ([5]; 2 min): 1.45 % Injected dose/organ
- Muscle ([5]; 2 min): 34.92 % Injected dose/organ
- Blood ([5]; 60 min): 0.71 % Injected dose/organ
- Heart ([5]; 60 min): 0.16 % Injected dose/organ
- Heart/Blood Counts/Gram Ratio ([5]; 60 min): 3.09
- Heart/Liver Counts/Gram Ratio ([5]; 60 min): 0.46
- Heart/Muscle Counts/Gram Ratio ([5]; 60 min): 1.41
- Kidney + Urine ([5]; 60 min): 4.95 % Injected dose/organ
- Liver ([5]; 60 min): 4.78 % Injected dose/organ
- Liver + GI ([5]; 60 min): 61.34 % Injected dose/organ
- Lung ([5]; 60 min): 0.47 % Injected dose/organ
- Muscle ([5]; 60 min): 11.68 % Injected dose/organ
- blood and liver clearance [6]: good
- heart uptake [6]: good heart uptake
- wash-out from heart [6]: washes out of the respective hearts
- Blood ([6]; 2 min): 3.50 % Injected dose/organ
- Heart ([6]; 2 min): 1.89 % Injected dose/organ
- Heart/Blood Counts/Gram Ratio ([6]; 2 min): 12.72
- Heart/Liver Counts/Gram Ratio ([6]; 2 min): 2.13
- Heart/Muscle Counts/Gram Ratio ([6]; 2 min): 4.48
- Kidney + Urine ([6]; 2 min): 6.98 % Injected dose/organ
- Liver ([6]; 2 min): 13.74 % Injected dose/organ
- Liver + GI ([6]; 2 min): 18.72 % Injected dose/organ
- Lung ([6]; 2 min): 3.11 % Injected dose/organ
- Muscle ([6]; 2 min): 61.65 % Injected dose/organ
- Blood ([6]; 60 min): 0.58 % Injected dose/organ
- Heart ([6]; 60 min): 0.13 % Injected dose/organ
- Heart/Blood Counts/Gram Ratio ([6]; 60 min): 5.35
- Heart/Liver Counts/Gram Ratio ([6]; 60 min): 0.72
- Heart/Muscle Counts/Gram Ratio ([6]; 60 min): 1.13
- Kidney + Urine ([6]; 60 min): 3.20 % Injected dose/organ
- Liver ([6]; 60 min): 3.16 % Injected dose/organ
- Liver + GI ([6]; 60 min): 62.38 % Injected dose/organ
- Lung ([6]; 60 min): 0.30 % Injected dose/organ
- Muscle ([6]; 60 min): 15.16 % Injected dose/organ

SMILES: CCOCC[P+]1(CCOCC)CC[P+](CCOCC)(CCOCC)[Tc-3]12(=[O])(=[O])[P+](CCOCC)(CCOCC)CC[P+]2(CCOCC)CCOCC [[TcO2 (P53)2]^+]
- protein binding [7]: low protein binding
- percent recovery of Tc99m activity [4]: 65.23%
- binding to / interaction with human plasma [4]: no significant binding
- Heart/Blood Counts/Gram Ratio ([2]; 2 min p.i.): 10.5
- Heart/Liver Counts/Gram Ratio ([2]; 2 min p.i.): 1.52
- Heart/Lung Counts/Gram Ratio ([2]; 2 min p.i.): 2.0
- Liver ([2]; 60 min p.i.): 1.62 % Injected dose/organ
- Blood ([5]; 2 min): 2.25 % Injected dose/organ
- Brian ([5]; 2 min): 0.03 % Injected dose/organ
- Heart ([5]; 2 min): 1.66 % Injected dose/organ
- Heart/Muscle Counts/Gram Ratio ([5]; 2 min): 5.94
- Kidney + Urine ([5]; 2 min): 13.2 % Injected dose/organ
- Liver ([5]; 2 min): 14.1 % Injected dose/organ
- Liver + GI ([5]; 2 min): 37.8 % Injected dose/organ
- Lung ([5]; 2 min): 1.44 % Injected dose/organ
- Muscle ([5]; 2 min): 31.6 % Injected dose/organ
- Blood ([5]; 60 min): 0.28 % Injected dose/organ
- Brian ([5]; 60 min): 0.02 % Injected dose/organ
- Heart ([5]; 60 min): 1.68 % Injected dose/organ
- Heart/Blood Counts/Gram Ratio ([5]; 60 min): 86.4
- Heart/Liver Counts/Gram Ratio ([5]; 60 min): 14.4
- Heart/Lung Counts/Gram Ratio ([5]; 60 min): 4.3
- Heart/Muscle Counts/Gram Ratio ([5]; 60 min): 5.74
- Kidney + Urine ([5]; 60 min): 9.29 % Injected dose/organ
- Liver + GI ([5]; 60 min): 42.5 % Injected dose/organ
- Lung ([5]; 60 min): 0.65 % Injected dose/organ
- Muscle ([5]; 60 min): 31.6 % Injected dose/organ
- percent recovery of Tc99m activity [8]: 90.34%
- Heart/Lung Counts/Gram Ratio [9]: 2.0
- Blood ([6]; 2 min): 3.11 % Injected dose/organ
- Heart ([6]; 2 min): 1.33 % Injected dose/organ
- Heart/Blood Counts/Gram Ratio ([6]; 2 min): 10.9
- Heart/Liver Counts/Gram Ratio ([6]; 2 min): 1.90
- Heart/Lung Counts/Gram Ratio ([6]; 2 min): 1.2
- Heart/Muscle Counts/Gram Ratio ([6]; 2 min): 6.12
- Kidney + Urine ([6]; 2 min): 16.7 % Injected dose/organ
- Liver ([6]; 2 min): 11.6 % Injected dose/organ
- Liver + GI ([6]; 2 min): 38.7 % Injected dose/organ
- Lung ([6]; 2 min): 1.14 % Injected dose/organ
- Muscle ([6]; 2 min): 30.0 % Injected dose/organ
- Blood ([6]; 60 min): 0.41 % Injected dose/organ
- Heart ([6]; 60 min): 0.99 % Injected dose/organ
- Heart/Blood Counts/Gram Ratio ([6]; 60 min): 61.9
- Heart/Liver Counts/Gram Ratio ([6]; 60 min): 7.51
- Heart/Muscle Counts/Gram Ratio ([6]; 60 min): 4.10
- Kidney + Urine ([6]; 60 min): 16.1 % Injected dose/organ
- Liver ([6]; 60 min): 2.13 % Injected dose/organ
- Liver + GI ([6]; 60 min): 44.6 % Injected dose/organ
- Lung ([6]; 60 min): 0.47 % Injected dose/organ
- Muscle ([6]; 60 min): 43.4 % Injected dose/organ
- percent recovery of Tc99m activity [10]: 90.82%
- heart uptake [11]: good heart uptake
